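Each compound was tested at five concentrations against cells in 96-well plates for 48 hours. The concentration for 50% growth inhibition is given as GI50.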 The source made the active and inactive calls. No stated cut-off is given here; in the data, active = GI50 up to about 1.1 µM and inactive = higher.
Legend:
Assay in all cases: growth of human tumour cells (NCI), 48 h
SNB-75 = tested on: SNB-75
SF-539 = tested on: SF-539
OVCAR-3 = tested on: OVCAR-3
Hs-578T = tested on: Hs-578T
LOX IMVI = tested on: LOX IMVI
M14 = tested on: M14
HCT-116 = tested on: HCT-116
HOP-62 = tested on: HOP-62
OVCAR-4 = tested on: OVCAR-4
UACC-257 = tested on: UACC-257
SK-MEL-2 = tested on: SK-MEL-2
K562 = tested on: K562
NCI/ADR-RES = tested on: NCI/ADR-RES
HCC 2998 = tested on: HCC 2998
U-251 = tested on: U-251
ACHN = tested on: ACHN
HL-60 = tested on: HL-60
OVCAR-5 = tested on: OVCAR-5
SK-OV-3 = tested on: SK-OV-3
HT-29 = tested on: HT-29

Measured: GI50

COC(=O)c1ccccc1CC1Cc2ccc3c(c2C1=O)CCC3 (stereo not given)
inactive: SNB-75 13.8 µM | SF-539 > 100 µM | OVCAR-3 > 100 µM | Hs-578T 43.3 µM | LOX IMVI 29.5 µM | M14 39.5 µM | HCT-116 37.1 µM | HOP-62 > 100 µM | OVCAR-4 29.9 µM | UACC-257 32.4 µM | SK-MEL-2 43.9 µM | K562 33.2 µM | NCI/ADR-RES 28.8 µM | HCC 2998 28.2 µM | U-251 51.1 µM | ACHN 41.5 µM | HL-60 16.6 µM | OVCAR-5 > 100 µM | SK-OV-3 > 100 µM | HT-29 27.9 µM

Cc1ccc(/C=C2\CN(C)CC3C2=NC(=S)NC3c2ccc(C)cc2)cc1 (stereo not given)
inactive: SNB-75 60.8 µM | SF-539 > 100 µM | OVCAR-3 38.6 µM | Hs-578T > 100 µM | LOX IMVI 34.7 µM | M14 42.5 µM | HCT-116 37.3 µM | HOP-62 > 100 µM | OVCAR-4 26.9 µM | UACC-257 62.4 µM | SK-MEL-2 > 30.7 µM | K562 38.7 µM | NCI/ADR-RES 30.8 µM | HCC 2998 16.1 µM | U-251 20.5 µM | ACHN > 100 µM | HL-60 31.3 µM | OVCAR-5 > 100 µM | SK-OV-3 > 100 µM | HT-29 27.2 µM

CC1CN1C(=O)NCCCCCCNC(=O)N1CC1C (stereo not given)
inactive: SNB-75 62.7 µM | SF-539 35 µM | OVCAR-3 > 100 µM | Hs-578T > 100 µM | LOX IMVI 34.3 µM | M14 68.2 µM | HCT-116 81.3 µM | HOP-62 30.2 µM | OVCAR-4 > 100 µM | UACC-257 > 100 µM | SK-MEL-2 > 100 µM | K562 > 97.5 µM | NCI/ADR-RES 78.7 µM | HCC 2998 > 100 µM | U-251 65.3 µM | ACHN 9.53 µM | HL-60 11.9 µM | OVCAR-5 > 100 µM | SK-OV-3 66.5 µM | HT-29 > 100 µM

OCCNCNc1nc(NCNCCO)nc(N(CNCCO)CNCCO)n1
inactive: SNB-75 24.7 µM | SF-539 19.6 µM | OVCAR-3 22.6 µM | Hs-578T 32 µM | LOX IMVI 17 µM | M14 19 µM | HCT-116 18.7 µM | HOP-62 19.5 µM | OVCAR-4 25.9 µM | UACC-257 18.2 µM | SK-MEL-2 21.5 µM | K562 19.9 µM | NCI/ADR-RES 24.4 µM | HCC 2998 18.9 µM | U-251 21.1 µM | ACHN 27 µM | HL-60 20.5 µM | OVCAR-5 13.6 µM | SK-OV-3 > 43.7 µM | HT-29 21.7 µM

CCN(C(=O)N[C@@H](C)C(=O)N[C@@H](Cc1ccccc1)C(=O)OC)c1ccccc1
inactive: SNB-75 54 µM | SF-539 34.5 µM | OVCAR-3 54.2 µM | Hs-578T 70.6 µM | LOX IMVI 31.2 µM | M14 34.4 µM | HCT-116 > 100 µM | HOP-62 > 100 µM | OVCAR-4 68.4 µM | UACC-257 49.1 µM | SK-MEL-2 28.6 µM | K562 32 µM | NCI/ADR-RES > 100 µM | HCC 2998 81.5 µM | U-251 > 100 µM | ACHN > 100 µM | HL-60 28.4 µM | OVCAR-5 > 100 µM | SK-OV-3 > 100 µM | HT-29 > 100 µM

— ChEMBL document CHEMBL1201862, “PubChem BioAssay data set” (2004)
